{"source": "patent US20200245666A1", "about": "“CANNABINOID EMULSIONS, BEVERAGES AND FOODS” (Lighthouse Strategies, LLC, priority 2019, published 2020)", "origin": "cited, not measured here", "conditions": "smoking a 3.55% THC cigarette", "data": [{"smiles": "CCCCCc1cc(O)c2c(c1)OC(C)(C)[C@@H]1CCC(C)=C[C@@H]21", "note": "[THC, Δ9-tetrahydrocannabinol]", "values": [{"measurement": "peak plasma level", "value": "152 ± 86.3", "unit": "ng/mL"}, {"measurement": "time of peak plasma level after inhalation", "value": "approximately 10 minutes"}]}]}
